Source: publication PMC4854315, “Discovery of a novel allosteric inhibitor-binding site in ERK5: comparison with the canonical kinase hinge ATP-binding site” (Acta Crystallographica. Section D, Structural Biology, 2016)

Experiments:
Test in all cases: Z'-LYTE kinase panel
Format in all cases: biochemical
ERBB2 (HER2) = target: T1, ERBB2 (HER2) (Homo sapiens, UniProt P04626)
T1 construct: purchased ThermoFisher (SelectScreen, Z'-LYTE)
Summary of the method: (§1)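 The 225-kinase standard panel was run using the Z′-LYTE protocol, and inhibition was expressed as a percentage relative to uninhibited activity at 10 µM compound.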

ADRBK1 (GRK2) = target: T2, ADRBK1 (GRK2) (Homo sapiens, UniProt P25098)
T2 construct: purchased ThermoFisher (SelectScreen, Z'-LYTE)
T2 sequence (P25098 1-689): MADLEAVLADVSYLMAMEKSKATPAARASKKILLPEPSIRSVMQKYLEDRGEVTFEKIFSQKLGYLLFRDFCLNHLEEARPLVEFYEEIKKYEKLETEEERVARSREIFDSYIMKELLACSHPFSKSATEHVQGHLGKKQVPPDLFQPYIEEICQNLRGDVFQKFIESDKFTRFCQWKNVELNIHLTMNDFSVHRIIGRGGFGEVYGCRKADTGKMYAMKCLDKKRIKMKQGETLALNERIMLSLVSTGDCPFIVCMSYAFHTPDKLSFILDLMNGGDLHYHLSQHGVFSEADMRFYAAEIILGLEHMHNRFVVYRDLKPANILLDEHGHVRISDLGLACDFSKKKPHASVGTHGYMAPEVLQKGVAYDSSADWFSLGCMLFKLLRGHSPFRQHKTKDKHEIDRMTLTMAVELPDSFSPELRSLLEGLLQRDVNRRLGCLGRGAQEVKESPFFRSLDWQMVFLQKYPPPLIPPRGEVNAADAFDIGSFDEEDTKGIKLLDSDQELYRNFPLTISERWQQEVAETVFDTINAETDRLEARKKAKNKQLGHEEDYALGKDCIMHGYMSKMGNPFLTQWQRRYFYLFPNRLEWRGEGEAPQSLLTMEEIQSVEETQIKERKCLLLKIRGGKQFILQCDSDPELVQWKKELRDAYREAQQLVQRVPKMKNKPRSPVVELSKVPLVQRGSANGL
Summary of the method: as §1

ACVR1B (ALK4) = target: T3, ACVR1B (ALK4) (Homo sapiens, UniProt P36896)
T3 construct: purchased ThermoFisher (SelectScreen, Z'-LYTE)
T3 sequence (P36896 24-505): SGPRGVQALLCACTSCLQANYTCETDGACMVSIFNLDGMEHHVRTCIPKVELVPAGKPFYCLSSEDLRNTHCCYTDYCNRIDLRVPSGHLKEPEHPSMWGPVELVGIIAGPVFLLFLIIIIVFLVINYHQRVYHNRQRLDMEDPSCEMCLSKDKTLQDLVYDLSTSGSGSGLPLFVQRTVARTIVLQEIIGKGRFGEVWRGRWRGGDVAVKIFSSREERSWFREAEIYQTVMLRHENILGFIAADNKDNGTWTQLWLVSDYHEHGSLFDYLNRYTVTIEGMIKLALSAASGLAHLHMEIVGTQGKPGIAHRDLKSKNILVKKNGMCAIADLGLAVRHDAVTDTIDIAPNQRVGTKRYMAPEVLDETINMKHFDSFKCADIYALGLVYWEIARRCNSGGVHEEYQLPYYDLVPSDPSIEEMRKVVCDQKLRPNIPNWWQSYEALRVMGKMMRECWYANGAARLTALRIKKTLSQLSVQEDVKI
Summary of the method: as §1

PAK4 = target: T4, PAK4 (Homo sapiens, UniProt O96013)
T4 construct: purchased ThermoFisher (SelectScreen, Z'-LYTE)
Summary of the method: as §1

YES1 = target: T5, YES1 (Homo sapiens, UniProt P07947)
T5 construct: purchased ThermoFisher (SelectScreen, Z'-LYTE)
Summary of the method: as §1

DYRK4 = target: T6, DYRK4 (Homo sapiens, UniProt Q9NR20)
T6 construct: purchased ThermoFisher (SelectScreen, Z'-LYTE)
T6 sequence (Q9NR20 1-520): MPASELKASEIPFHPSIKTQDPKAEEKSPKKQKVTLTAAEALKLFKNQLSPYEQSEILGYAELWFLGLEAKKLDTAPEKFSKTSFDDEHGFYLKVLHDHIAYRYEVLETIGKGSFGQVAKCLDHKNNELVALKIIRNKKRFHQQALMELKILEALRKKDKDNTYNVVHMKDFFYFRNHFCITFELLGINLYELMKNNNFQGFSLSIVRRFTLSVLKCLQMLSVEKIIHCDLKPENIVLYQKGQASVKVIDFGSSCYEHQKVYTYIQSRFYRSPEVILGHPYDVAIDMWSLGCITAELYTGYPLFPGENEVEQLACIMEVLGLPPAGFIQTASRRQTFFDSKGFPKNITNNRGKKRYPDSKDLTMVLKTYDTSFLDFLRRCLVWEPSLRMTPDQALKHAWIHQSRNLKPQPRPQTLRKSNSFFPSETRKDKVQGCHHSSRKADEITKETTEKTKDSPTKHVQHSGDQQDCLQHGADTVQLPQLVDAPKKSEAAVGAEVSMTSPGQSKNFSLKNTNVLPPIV
Summary of the method: as §1

FGFR2 = target: T7, FGFR2 (Homo sapiens, UniProt P21802)
T7 construct: purchased ThermoFisher (SelectScreen, Z'-LYTE)
Summary of the method: as §1

TEK (Tie2) = target: T8, TEK (Tie2) (Homo sapiens, UniProt Q02763)
T8 construct: purchased ThermoFisher (SelectScreen, Z'-LYTE)
Summary of the method: as §1

IRAK4 = target: T9, IRAK4 (Homo sapiens, UniProt Q9NWZ3)
T9 construct: purchased ThermoFisher (SelectScreen, Z'-LYTE)
T9 sequence (Q9NWZ3 1-460): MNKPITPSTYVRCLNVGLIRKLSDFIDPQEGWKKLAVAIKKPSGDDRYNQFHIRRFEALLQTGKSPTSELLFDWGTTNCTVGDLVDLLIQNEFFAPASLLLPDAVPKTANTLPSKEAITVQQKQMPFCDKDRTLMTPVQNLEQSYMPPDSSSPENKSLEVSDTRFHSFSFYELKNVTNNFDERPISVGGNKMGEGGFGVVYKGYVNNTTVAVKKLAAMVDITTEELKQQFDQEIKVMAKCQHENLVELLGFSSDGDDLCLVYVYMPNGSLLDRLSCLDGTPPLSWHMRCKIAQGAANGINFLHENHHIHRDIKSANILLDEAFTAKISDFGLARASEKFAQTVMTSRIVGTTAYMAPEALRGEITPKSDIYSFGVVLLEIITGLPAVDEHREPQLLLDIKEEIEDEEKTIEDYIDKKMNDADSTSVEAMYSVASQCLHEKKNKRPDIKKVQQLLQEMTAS
Summary of the method: as §1

T4 sequence (O96013 whole entry): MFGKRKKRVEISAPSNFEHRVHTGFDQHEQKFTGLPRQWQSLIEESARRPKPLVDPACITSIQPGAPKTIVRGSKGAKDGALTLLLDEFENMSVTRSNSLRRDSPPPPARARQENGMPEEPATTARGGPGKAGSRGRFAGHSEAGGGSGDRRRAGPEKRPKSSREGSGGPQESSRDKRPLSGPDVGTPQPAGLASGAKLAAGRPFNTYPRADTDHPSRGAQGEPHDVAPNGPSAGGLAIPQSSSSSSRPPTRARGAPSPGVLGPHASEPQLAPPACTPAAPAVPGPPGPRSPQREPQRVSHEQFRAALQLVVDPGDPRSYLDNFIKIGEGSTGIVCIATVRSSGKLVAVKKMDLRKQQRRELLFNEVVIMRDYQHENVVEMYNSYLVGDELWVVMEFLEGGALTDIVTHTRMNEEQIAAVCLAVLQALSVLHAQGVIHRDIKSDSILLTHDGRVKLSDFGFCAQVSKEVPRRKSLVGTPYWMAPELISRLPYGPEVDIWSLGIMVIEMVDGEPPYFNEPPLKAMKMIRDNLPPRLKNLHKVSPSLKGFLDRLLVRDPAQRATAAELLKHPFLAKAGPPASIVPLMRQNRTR
T7 sequence (P21802 22-821): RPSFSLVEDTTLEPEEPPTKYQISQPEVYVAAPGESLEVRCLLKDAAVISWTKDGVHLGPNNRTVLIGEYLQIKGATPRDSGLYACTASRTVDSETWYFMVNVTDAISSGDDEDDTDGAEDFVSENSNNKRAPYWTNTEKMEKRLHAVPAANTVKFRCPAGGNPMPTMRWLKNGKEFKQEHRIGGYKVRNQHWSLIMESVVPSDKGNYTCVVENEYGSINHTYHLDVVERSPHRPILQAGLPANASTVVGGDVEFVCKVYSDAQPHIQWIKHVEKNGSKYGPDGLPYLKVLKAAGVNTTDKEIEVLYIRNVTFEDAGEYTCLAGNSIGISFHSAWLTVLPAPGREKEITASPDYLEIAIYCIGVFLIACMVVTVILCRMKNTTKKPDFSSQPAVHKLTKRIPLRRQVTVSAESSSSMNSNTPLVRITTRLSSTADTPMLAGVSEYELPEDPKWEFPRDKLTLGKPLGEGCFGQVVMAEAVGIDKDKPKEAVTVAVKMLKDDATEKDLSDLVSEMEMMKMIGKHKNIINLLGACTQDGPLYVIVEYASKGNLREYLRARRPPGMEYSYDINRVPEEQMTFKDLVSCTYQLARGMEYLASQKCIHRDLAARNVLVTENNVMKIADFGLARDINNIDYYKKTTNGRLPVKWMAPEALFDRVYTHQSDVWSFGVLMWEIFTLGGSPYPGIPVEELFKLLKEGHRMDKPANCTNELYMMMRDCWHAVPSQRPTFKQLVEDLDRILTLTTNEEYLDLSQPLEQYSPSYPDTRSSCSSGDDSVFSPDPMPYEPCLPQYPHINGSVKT
T8 sequence (Q02763 23-1124): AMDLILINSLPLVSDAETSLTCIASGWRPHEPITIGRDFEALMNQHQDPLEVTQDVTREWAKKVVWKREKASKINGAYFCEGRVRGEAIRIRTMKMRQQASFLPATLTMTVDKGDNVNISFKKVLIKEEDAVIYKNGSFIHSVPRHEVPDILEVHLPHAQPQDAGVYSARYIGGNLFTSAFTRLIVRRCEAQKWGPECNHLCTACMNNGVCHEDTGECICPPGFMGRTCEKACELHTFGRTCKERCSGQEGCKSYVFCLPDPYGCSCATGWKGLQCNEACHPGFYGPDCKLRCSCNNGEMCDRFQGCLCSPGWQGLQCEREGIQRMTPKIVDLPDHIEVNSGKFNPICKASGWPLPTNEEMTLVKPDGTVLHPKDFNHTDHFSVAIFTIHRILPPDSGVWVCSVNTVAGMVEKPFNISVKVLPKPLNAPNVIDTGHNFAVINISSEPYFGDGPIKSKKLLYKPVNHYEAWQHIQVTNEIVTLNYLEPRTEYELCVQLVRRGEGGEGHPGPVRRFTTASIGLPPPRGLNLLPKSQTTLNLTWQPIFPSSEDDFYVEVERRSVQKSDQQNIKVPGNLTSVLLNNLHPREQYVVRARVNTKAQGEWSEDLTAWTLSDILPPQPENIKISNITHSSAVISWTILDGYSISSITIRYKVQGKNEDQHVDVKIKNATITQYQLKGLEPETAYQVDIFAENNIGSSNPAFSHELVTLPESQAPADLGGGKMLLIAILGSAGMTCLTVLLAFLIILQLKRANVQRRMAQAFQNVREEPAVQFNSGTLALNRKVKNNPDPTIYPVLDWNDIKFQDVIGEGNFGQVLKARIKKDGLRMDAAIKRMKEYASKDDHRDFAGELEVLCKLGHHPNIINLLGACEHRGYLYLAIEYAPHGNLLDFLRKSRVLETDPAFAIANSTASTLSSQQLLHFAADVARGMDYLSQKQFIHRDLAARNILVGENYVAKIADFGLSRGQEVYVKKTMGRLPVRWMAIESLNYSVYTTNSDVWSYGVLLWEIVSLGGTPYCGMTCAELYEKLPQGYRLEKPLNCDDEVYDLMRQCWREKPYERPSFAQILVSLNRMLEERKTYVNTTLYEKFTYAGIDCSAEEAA
T5 sequence (P07947 whole entry): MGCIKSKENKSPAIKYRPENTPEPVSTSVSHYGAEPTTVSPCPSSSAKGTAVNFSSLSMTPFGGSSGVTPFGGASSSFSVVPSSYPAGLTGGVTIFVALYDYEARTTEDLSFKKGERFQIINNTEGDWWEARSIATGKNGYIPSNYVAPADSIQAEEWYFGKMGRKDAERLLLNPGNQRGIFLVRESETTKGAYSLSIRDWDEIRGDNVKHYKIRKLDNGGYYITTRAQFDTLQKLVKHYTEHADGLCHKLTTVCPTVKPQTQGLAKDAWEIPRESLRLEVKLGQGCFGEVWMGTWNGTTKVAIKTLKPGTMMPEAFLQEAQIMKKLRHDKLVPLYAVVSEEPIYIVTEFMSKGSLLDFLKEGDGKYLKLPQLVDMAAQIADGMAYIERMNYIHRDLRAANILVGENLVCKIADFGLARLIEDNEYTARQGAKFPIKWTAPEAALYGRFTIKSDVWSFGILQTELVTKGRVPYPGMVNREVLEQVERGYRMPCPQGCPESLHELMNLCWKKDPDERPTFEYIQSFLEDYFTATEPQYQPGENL

## XMD8-92 [Compound 2, reference compound]
ERBB2 (HER2); 10 µM compound, ATP Km app
  ERBB2 (HER2) % Inhibition: -17%
ADRBK1 (GRK2); 10 µM compound, ATP Km app
  ADRBK1 (GRK2) % Inhibition: -1%
ACVR1B (ALK4); 10 µM compound, ATP Km app
  ACVR1B (ALK4) % Inhibition: -2.75%
PAK4; 10 µM compound, ATP Km app
  PAK4 % Inhibition: 26%
YES1; 10 µM compound, ATP Km app
  YES1 % Inhibition: 41%
DYRK4; 10 µM compound, ATP Km app
  DYRK4 % Inhibition: 1.2%
FGFR2; 10 µM compound, ATP Km app
  FGFR2 % Inhibition: 33%
TEK (Tie2); 10 µM compound, ATP Km app
  TEK (Tie2) % Inhibition: 6.54%
IRAK4; 10 µM compound, ATP Km app
  IRAK4 % Inhibition: -9%

## Cc1ncc(-c2nc(Nc3ccc(C(=O)NCCN4CCCCC4)cc3)ncc2F)n1C(C)C [Compound 3]
ERBB2 (HER2)
  inhibition at 10 µM: -1.66%
ADRBK1 (GRK2)
  inhibition at 10 µM: 17%
ACVR1B (ALK4)
  inhibition at 10 µM: 52%
PAK4
  inhibition at 10 µM: 81%
YES1
  inhibition at 10 µM: 85%
DYRK4
  inhibition at 10 µM: 23%
FGFR2
  inhibition at 10 µM: 88%
TEK (Tie2)
  inhibition at 10 µM: 73%
IRAK4
  inhibition at 10 µM: 71%

## Cc1cc(Nc2nc(N)nn2C(=O)NC(C)C)ccc1Cl [Compound 5]
ERBB2 (HER2)
  inhibition at 10 µM: -29%
ADRBK1 (GRK2)
  inhibition at 10 µM: -0.227%
ACVR1B (ALK4)
  inhibition at 10 µM: -8%
PAK4
  inhibition at 10 µM: 41%
YES1
  inhibition at 10 µM: 46%
DYRK4
  inhibition at 10 µM: 5%
FGFR2
  inhibition at 10 µM: 53%
TEK (Tie2)
  inhibition at 10 µM: 40%
IRAK4
  inhibition at 10 µM: -2.32%
